The structures appear in SMILES notation.

Take `COCCOc1cc2ncc(C#N)c(Nc3ccc4cn[nH]c4c3)c2cc1OCCOC`: the melting point is 105 to 110 °C.
Under `Cc1ccc(C=C2CCc3c2oc2ccc(C(=O)O)cc2c3=O)c(C)c1` stands 329 to 331 °C.
Take `O=Cc1cc2c3ccccc3oc2c2ccccc12`: the melting point was 123 to 125 °C.
Regarding `CCC(CC)(OC)c1ccc(Cl)c2nc3n(c12)CCCN3c1ccc(Cl)cc1Cl`, the melting point was in the range of 124 to 125 °C.
As to `CCCCCC(C(=O)c1ccccc1)C(=O)c1ccccc1`, the melting point is 68.5 to 69.5 °C.
Under `CCCc1nc(NN)nc(O)c1Cc1ccc(-c2ccccc2C#N)cc1` stands 191 °C.
As for `O=C1NC(=O)C(Cc2ccc(N3CCC(NC[C@H](O)c4ccc5nnnn5c4)CC3)cc2)S1` (stereo partly specified), the figure is 130 to 132 °C; as for `CC(C)(C)COc1c(-c2ccc(S(N)(=O)=O)cc2)cnn(CC(F)(F)F)c1=O`, 123 to 124 °C; as for `CCOC(=O)CCc1ccc(CCN2CCN(S(=O)(=O)c3ccccc3)CC2)cc1`, 114 to 116 °C.
As for `CCCOC(=O)C(=C1SC=CS1)S(=O)(=O)C(C)C`, the figure is 78 to 79 °C; as for `O=c1cccnn1-c1ccc2nc([C@H]3C[C@H](N4CCCCC4)C3)sc2c1`, 127 to 128 °C; as for `CCc1c(C)nc2n1N=C(c1ccc(N)cc1)c1cc3c(cc1C2)OCO3`, 227 to 228 °C.
In the case of `COC1(C=Cc2ccc(C=O)cc2)OOCCOO1`, the melting point lay in the range of 95 to 97 °C.
Take `CC(C)(C)Nc1c(Nc2cnc3ccccc3c2)c(=O)c1=O`: the melting point was 257 to 260 °C.
Under `CC(C)C(Br)C(=O)Nc1ccccc1O` (stereo unspecified) stands 110 to 111 °C.
As for `N#Cc1cnc2cc(Br)sc2c1Cl`, the figure is 190 to 191 °C.
As to `Nc1ccc(S(=O)(=O)Nc2ccc(OP(N)(N)=O)cc2)cc1`, the melting point was 174 to 175 °C.
In the case of `CC(=CCCCC(C)(C)O)c1cccc(C=Cc2cc(O)cc(O)c2)c1`, the melting point was in the range of 55 to 60 °C.
As for `CCCCc1nn2cc(-c3ccccc3)nc2n1Cc1ccc(-c2ccccc2-c2nnn[nH]2)cc1`, the melting point was above 160 °C.
As for `COc1cc(C=NOCc2ccccc2)c([N+](=O)[O-])cc1OC`, the figure is 109 to 113 °C.
As for `O=CNc1cc(Cl)ccc1C=O`, the figure is 131 to 136 °C; as for `CCOC(=O)Cc1ccc(-c2nc(COc3ccc(COc4nn(-c5ccccc5)cc4/C=C/c4cn(CC)cn4)cc3OC)c(C)o2)cc1`, 140 to 141 °C.
`Cc1ccnn1-c1ccc(Cl)c(Cl)c1`: the melting point was in the range of 46 to 47 °C.
With `CC(C)(C)OC(=O)N(CC#N)CCN(CC#N)C(=O)OC(C)(C)C`, the melting point is 112 to 113 °C.
Under `CC(C)c1cccc(C(C)C)c1NC(=O)NS(=O)(=O)Cl` stands 130 to 134 °C; under `CCCN(CCN1CCN(c2cccc(Cl)c2Cl)CC1)C1CCc2ncsc2C1` (stereo unspecified), 104 °C; under `Oc1ccc(O)c(-c2noc3cc(O)ccc23)c1`, 215 to 217 °C.
Take `CCCCNC(=O)COC1C(O)C(CO)OC(Oc2ccc(N)cc2)C1O` (stereo unspecified): the melting point was 135 °C.
Under `CC(C)CCNC(=O)c1ccc2c(c1)N(C(C)CN1CCCC1CO)c1ccccc1S2` (stereo unspecified) stands 140 °C.
Under `CC(C)Oc1ccc(/C=C/C=C/CO)cc1` stands 91 to 92 °C; under `Cc1c(C(=O)Nc2ccc(OCCCN3CCOCC3)c(C#N)c2)cnn1-c1ccc(Cl)cc1`, 155 to 157 °C; under `O=C(c1ccccc1Cl)c1ccccc1[N+](=O)[O-]`, 76 to 79 °C.
As for `CC12CCC(=O)C=C1CCC1C2=CCC2(C)C1CCC2(O)C(=O)CO` (stereo unspecified), the figure is 248 °C; as for `COc1cccc(-c2cc(Cl)c3cc(OC)ccc3n2)c1`, 106 to 107 °C.
In turn, `O=C1NC(NCC2CC2)=N/C1=C\c1c[nH]c2ncc(F)cc12` had a melting point of 312 °C.
As for `C[C@H](C(=O)O)C(C)(C)c1ccccc1`, the figure is 69 to 72 °C; as for `O=C1CC(c2cccc(-n3ccnn3)c2)=Nc2cc(O)c(C#Cc3ccc(F)cc3)cc2N1`, 243 °C; as for `COc1ccc(Cn2c(=O)[nH]c(=O)c3[nH]c(C(C)C)nc32)cc1OC1CCCC1`, 282 to 283 °C.
Under `Cc1nnc(NCCN(C)C)nc1C` stands 46 to 49 °C.
As for `O=C(O)CCCOc1ccc(C2=CCCCCC2)cc1`, the figure is 87 to 88 °C; as for `Cc1cc(=O)n(C(=O)Oc2c(C(=O)c3ccc(Cl)cc3Cl)c(C)nn2C)o1`, 180 to 182 °C.
`COC(OC)c1cccc(NCc2ccccc2)c1` registered a melting point of 55 to 56 °C.
`COc1cccc(S)c1S(=O)(=O)NC(C)(C)C` returned a melting point of 210 °C.
`COC(=O)C(Oc1ccc(Cl)cc1)c1ccc(Sc2ccc(Cl)cc2)cc1` (stereo unspecified) had a melting point of 90.5 to 94.5 °C.
As for `O=C1C(=O)c2ccccc2C2=C1SCC1(CCN(S(=O)(=O)c3ccc(Cl)c(Cl)c3)CC1)O2`, the figure is 275 to 276 °C; as for `O=C(C1CCN(c2ccncc2)CC1)N1CCC(Oc2ccc(Br)cc2)CC1`, 127 to 130 °C.
Turning to `COC(C)(C)CNCc1cnc2c(C)c(NC(=O)c3ccc(OCC4CCOC4)cc3)ccc2c1` (stereo unspecified), the melting point is 137 °C.
As for `CC(=O)Oc1c(C)c(C)c2c(c1C)C(=O)CC(C)(COc1ccc(N)cc1)O2` (stereo unspecified), the figure is 177 to 178 °C; as for `O=C1CSC(=S)N1c1ccc(Cl)c(Cl)c1`, 176 to 178 °C; as for `CC1COc2c(N3Cc4ccc(N)cc4C3)c(F)cc3c(=O)c(C(=O)O)cn1c23` (stereo unspecified), 272 to 276 °C.
In the case of `O=C1NCNCC1(c1ccccc1)c1ccccn1` (stereo unspecified), the melting point was 201 to 203 °C.
Turning to `CCc1nc2c(cnn2CC)c(NC2CCOCC2)c1CNC(=O)c1cc(C)cc(C(=O)NCc2ccc(C)c(-c3cccc(C=O)c3)c2)c1`, the melting point fell in the range of 117 to 120 °C.
As for `C[C@@H](O)[C@H](NC(=O)c1ccc(F)c(Br)c1)C(=O)NO`, the figure is 152 to 153 °C; as for `CCOC(=O)[C@H](Cc1ccc(-c2c(OC)cc(COS(C)(=O)=O)cc2OC)cc1)NC(=O)c1c(Cl)cccc1Cl`, 109 °C; as for `Cc1cnc(N2CCC(c3ccc([N+](=O)[O-])cc3)CC2)n1C`, 178 to 179 °C.
`CCOC(=O)COc1cccc(-c2n[nH]c3c2Cc2ccccc2-3)c1`: the melting point lay within 134 to 136 °C.
As to `O=C(O)COc1ccc(CCNS(=O)(=O)c2ccccc2)cc1`, the melting point lay in the range of 157 to 158 °C.
For the molecule `CCCCCC1CCC(CCC2OCC(CCC)CO2)CC1` (stereo unspecified), the melting point was 44 °C.
Take `CS(=O)(=O)c1ccc(/C(=C(\CCO)C(=O)O)c2ccc(Cl)cc2)cc1`: the melting point is 144 to 145 °C.
Under `CC(=O)Oc1ccc(-c2nc3c(N)nc(N)nc3nc2N)cc1` stands 319 to 321 °C; under `COc1ccc(/C=C/c2c(Cl)cncc2Cl)c2c1OC(C)(C)C2`, 114 to 118 °C; under `O=C(Cn1c(-c2cccc(Cl)c2)nc2cccnc21)Nc1ccccc1`, 211 to 212 °C.
Molecule `O=C(Nc1cccc(C(F)(F)F)c1)c1cccnc1NCc1ccncc1` returned a melting point of 152 to 153 °C.
`CCOc1cccc(-c2cn(C)cc(-c3ccccc3)c2=O)c1` displayed a melting point of 133 to 135 °C.
`CN1CC(CCCl)Oc2cc(Cl)ccc2C1=O` (stereo unspecified) yielded a melting point of 85 to 87 °C.
Molecule `CC=C1CCC2C3CCC4CC(O)CCC4(C)C3C(N)CC12C` (stereo unspecified) came in with a melting point of 118 to 125 °C.
`CN1C(=O)CC[C@]2(C)c3ccc(-c4ccccc4F)cc3CC[C@@H]12` yielded a melting point of 142 to 150 °C.
As for `Cc1cc(-c2ccc(C(F)(F)F)cc2)cnc1N=CN(C)C`, the figure is 74 °C; as for `CCCNCC(O)c1ccc(Br)cc1` (stereo unspecified), 72.5 to 74.5 °C; as for `CCOC(=O)c1c[nH]c2c(cc(Cl)c3c(=O)c(C(=O)OCC)c[nH]c32)c1=O`, 285 to 288 °C.
As for `Cn1c2cc[nH]c(=O)c2c2cccc(F)c21`, the figure is 294 to 296 °C; as for `CCCCc1nc2c(N)nc3ccccc3c2n1CC(C)(C)OCCS(C)(=O)=O`, 196 to 198 °C; as for `CN(C)C=NS(=O)(=O)c1cc(CCNC(=O)C(F)(F)F)ccc1OCc1ccccc1`, 103 °C.
`Fc1ccc2c(c1)nc(CC(F)(F)F)n2C1CCNCC1` yielded a melting point of 135 °C.
Regarding `O=C(Nc1n[nH]c(=S)s1)NC(Cc1ccccc1)C(=O)NCCN1CCOCC1` (stereo unspecified), the melting point lay within 165 to 167 °C.
In turn, `CC(C)SC1=C(O)CC(C)(C)CC1=O` yielded a melting point of 74.5 to 79.5 °C.
Molecule `O=C(CN1CCCCC1)Nc1ccc(-c2cc(-c3c[nH]nc3-c3ccccn3)ccn2)cc1` registered a melting point of 180 °C.
As for `C#CCNC(=O)c1ncn2c1CN(C)C(=O)c1c-2ccc(F)c1Cl`, the figure is 235 to 237 °C; as for `CC(=O)C(c1ccccc1)c1cccc2c1NCC2` (stereo unspecified), 55 to 56 °C; as for `COc1ccc(-c2ncccc2C=C(Cc2cc3c(cc2OC)OCO3)C(=O)O)c(OCc2ccccc2C(=O)O)c1`, 135 to 140 °C.
Under `O=C(CCCCCBr)c1cc2c3c(c1)CCN3C(=O)CC2` stands 97 to 98 °C.
Under `FC(F)(F)C1(c2cc(Cl)cc(Cl)c2)CC(c2ccc(-n3cccn3)cc2)=NO1` (stereo unspecified) stands 174 to 175 °C.
The molecule `Cc1cc(Br)cnc1CCCCNC1=NS(=O)(=O)c2cc(-c3ccccn3)ccc21` registered a melting point of 233 to 234 °C.
As for `CC(C)(C)COC(=O)C#CC1C(C(=O)OC(C#N)c2cccc(Oc3ccccc3)c2)C1(C)C` (stereo unspecified), the figure is 67 °C; as for `Cc1cccc(Nc2cc(Nc3cccc(OCC(N)=O)c3)ncn2)c1`, 192 to 194 °C; as for `O=[N+]([O-])c1ccc(Br)cc1-c1cc(-c2cccc(Br)c2)on1`, 195 to 197 °C.
Consider `NC(=O)Cc1csc(-c2cccc(Br)c2)n1`, for which the melting point fell in the range of 150 to 152 °C.
With `O=c1n(-c2ccccc2)nc2c3c(nc(Cl)n12)CCCC3`, the melting point was 205 to 207 °C.
The molecule `CC1=NOC2C3CC(C12)C1C(=O)OC(=O)C31` (stereo unspecified) showed a melting point of 194 to 197 °C.
Take `CC(C)(C)C(=O)Nc1c(F)cc(F)cc1Oc1ccc(C(C)(C)C(N)=O)cc1`: the melting point lay within 169 to 170 °C.
Under `CC(C)(C)N(C=O)N=NNC=O` stands 103 to 105 °C.

Usually melting point stands for the temperature, or range, at which the solid turns liquid.

For the origin of these results see a melting point compilation (Tetko et al.; mined from patent text by program, amines drawn as free bases though some values may be those of a salt).
